Data reported in patent US10112937B2, “P2X7 modulators and methods of use” (Janssen Pharmaceutica NV, priority 2013, dated 2018).

Target: human P2X7 (Homo sapiens (Human), UniProt Q99572)
Assay: P2X7 antagonism in human PBMCs (IL-1β release after LPS + Bz-ATP, ELISA)
Assay type: cell-based
Settings: for PBMC 1 μM (% control): test compound 1 μM; for PBMC 10 μM (% control): test compound 10 μM

human P2X7, sequence (Q99572 whole entry): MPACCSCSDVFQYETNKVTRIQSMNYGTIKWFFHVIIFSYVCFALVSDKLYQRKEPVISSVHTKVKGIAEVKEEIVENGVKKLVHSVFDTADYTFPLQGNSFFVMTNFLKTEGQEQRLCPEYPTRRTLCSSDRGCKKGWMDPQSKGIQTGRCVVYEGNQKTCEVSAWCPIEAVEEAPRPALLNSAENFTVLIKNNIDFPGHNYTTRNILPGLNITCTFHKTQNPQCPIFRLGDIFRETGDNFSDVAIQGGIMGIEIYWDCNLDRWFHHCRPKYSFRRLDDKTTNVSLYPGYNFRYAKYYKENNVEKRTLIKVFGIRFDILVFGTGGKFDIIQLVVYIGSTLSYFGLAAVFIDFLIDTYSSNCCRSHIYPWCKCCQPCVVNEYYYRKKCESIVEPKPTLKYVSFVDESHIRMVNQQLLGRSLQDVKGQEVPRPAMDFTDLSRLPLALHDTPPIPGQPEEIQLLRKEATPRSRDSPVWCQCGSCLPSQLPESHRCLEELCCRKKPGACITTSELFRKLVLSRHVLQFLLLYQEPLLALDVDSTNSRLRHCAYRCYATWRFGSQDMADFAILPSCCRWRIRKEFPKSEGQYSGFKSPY

Compound | PBMC 1 μM (% control) (human PBMCs) | PBMC 10 μM (% control) (human PBMCs) | further results
O=C(c1cccc(Cl)c1Cl)N1CCc2c(-c3ccccc3)n[nH]c2C1 [Example 100, 6-[(2,3-Dichlorophenyl)carbonyl]-3-phenyl-4,5,6,7-tetrahydro-1H-pyrazolo[3,4-c]pyridine] | 9.2 |  | 
Cn1nc(-c2ccccc2)c2c1CN(C(=O)c1cccc(Cl)c1Cl)CC2.Cn1nc2c(c1-c1ccccc1)CCN(C(=O)c1cccc(Cl)c1Cl)C2 [Example 101, 6-[(2,3-Dichlorophenyl)carbonyl]-1-methyl-3-phenyl-4,5,6,7-tetrahydro-1H-pyrazolo[3,4-c]pyridine-6-[(2,3-dichlorophenyl)carbonyl]-2-methyl-3-phenyl-4,5,6,7-tetrahydro-2H-pyrazolo[3,4-c]pyridine (1:1)] | 7.6 |  | PBMC 1 μM (% control) (LPS 30 ng/ml + 0.5 mM Bz-ATP): 7.6 % control
Cn1nc2c(c1-c1ccccc1)CCN(C(=O)c1cccc(Cl)c1Cl)C2 [Example 102, 6-[(2,3-Dichlorophenyl)carbonyl]-2-methyl-3-phenyl-4,5,6,7-tetrahydro-2H-pyrazolo[3,4-c]pyridine] | 18.0 |  | 
Cn1nc(-c2ccccc2)c2c1CN(C(=O)c1cccc(Cl)c1Cl)CC2 [Example 103, 6-[(2,3-Dichlorophenyl)carbonyl]-1-methyl-3-phenyl-4,5,6,7-tetrahydro-1H-pyrazolo[3,4-c]pyridine] | 56.0 |  | 
O=C(c1ccnc(Cl)c1Cl)N1CCc2c(-c3ccccc3)n[nH]c2C1 [Example 104, 6-[(2,3-Dichloropyridin-4-yl)carbonyl]-3-phenyl-4,5,6,7-tetrahydro-1H-pyrazolo[3,4-c]pyridine] | 8.9 |  | 
Cn1nc2c(c1-c1ccc(F)cc1)CCN(C(=O)c1cccc(C(F)(F)F)c1Cl)C2 [Example 105, 6-{[2-Chloro-3-(trifluoromethyl)phenyl]carbonyl}-3-(4-fluorophenyl)-2-methyl-4,5,6,7-tetrahydro-2H-pyrazolo[3,4-c]pyridine] | 51.0 |  | 
Cn1nc(-c2cccnc2)c2c1CN(C(=O)c1cccc(C(F)(F)F)c1Cl)CC2 [Example 108, 6-{[2-Chloro-3-(trifluoromethyl)phenyl]carbonyl}-1-methyl-3-pyridin-3-yl-4,5,6,7-tetrahydro-1H-pyrazolo[3,4-c]pyridine] | 1.1 |  | 
O=C(c1cccc(Cl)c1Cl)N1CCc2c(-c3ccncc3)n[nH]c2C1 [Example 115, 6-[(2,3-Dichlorophenyl)carbonyl]-3-pyridin-4-yl-4,5,6,7-tetrahydro-2H-pyrazolo[3,4-c]pyridine] |  | −3.3 | 
O=C(c1ccc(F)cc1Cl)N1CCc2c(nnn2-c2ccccn2)C1 [Example 117, (2-Chloro-4-fluorophenyl)(1-(pyridin-2-yl)-6,7-dihydro-1H-[1,2,3]triazolo[4,5-c]pyridin-5(4H)-yl)methanone] |  | 4.3 | 
CC1Cc2c(nnn2-c2ccccn2)CN1C(=O)c1cccc(Cl)c1Cl (stereo not drawn) [Example 120, 5-[(2,3-Dichlorophenyl)carbonyl]-6-methyl-1-pyridin-2-yl-4,5,6,7-tetrahydro-1H-[1,2,3]triazolo[4,5-c]pyridine] |  | −3.8 | 
CC1Cc2c(nnn2-c2ccccn2)CN1C(=O)c1ccc(F)c(Cl)c1Cl (stereo not drawn) [Example 121, 5-[(2,3-Dichloro-4-fluorophenyl)carbonyl]-6-methyl-1-pyridin-2-yl-4,5,6,7-tetrahydro-1H-[1,2,3]triazolo[4,5-c]pyridine] |  | −0.2 | 
CC1Cc2c(nnn2-c2ncccc2F)CN1C(=O)c1cccc(C(F)(F)F)c1Cl (stereo not drawn) [Example 122, 5-{[2-Chloro-3-(trifluoromethyl)phenyl]carbonyl}-1-(3-fluoropyridin-2-yl)-6-methyl-4,5,6,7-tetrahydro-1H-[1,2,3]triazolo[4,5-c]pyridine] |  | 0.2 | 
O=C(c1cccc(C(F)(F)F)c1F)N1CCc2c(nnn2-c2ccccn2)C1 [Example 123, (2-Fluoro-3-(trifluoromethyl)phenyl)(1-(pyridin-2-yl)-6,7-dihydro-1H-[1,2,3]triazolo[4,5-c]pyridin-5(4H)-yl)methanone] | 22.0 |  | 
Cn1ccc(-n2nnc3c2CCN(C(=O)c2cccc(C(F)(F)F)c2Cl)C3)n1 [Example 127, (2-Chloro-3-(trifluoromethyl)phenyl)(1-(1-methyl-1H-pyrazol-3-yl)-6,7-dihydro-1H-[1,2,3]triazolo[4,5-c]pyridin-5(4H)-yl)methanone] |  | 9.2 | 
O=C(c1ccc(Cl)cc1F)N1CCc2c(nnn2-c2ccccn2)C1 [Example 129, (4-Chloro-2-fluorophenyl)(1-(pyridin-2-yl)-6,7-dihydro-1H-[1,2,3]triazolo[4,5-c]pyridin-5(4H)-yl)methanone] |  | 8.4 | 
O=C(c1ccc(F)c(Cl)c1Cl)N1CCc2c(nnn2-c2ccccn2)C1 [Example 130, (2,3-Dichloro-4-fluorophenyl)(1-(pyridin-2-yl)-6,7-dihydro-1H-[1,2,3]triazolo[4,5-c]pyridin-5(4H)-yl)methanone] |  | 3.7 | 
Cc1c(C(=O)N2CCc3c(nnn3-c3ccccn3)C2)ccc(F)c1F [Example 132, (3,4-Difluoro-2-methylphenyl)(1-(pyridin-2-yl)-6,7-dihydro-1H-[1,2,3]triazolo-[4,5-c]pyridin-5(4H)-yl)methanone] |  | 3.8 | 
O=C(c1cccc(C(F)(F)F)c1Cl)N1CCc2c(nnn2-c2cccc(F)n2)C1 [Example 135, (2-Chloro-3-(trifluoromethyl)phenyl)(1-(6-fluoropyridin-2-yl)-6,7-dihydro-1H-[1,2,3]triazolo[4,5-c]pyridin-5(4H)-yl)methanone] |  | 1.7 | 
COc1ccnc(-n2nnc3c2CCN(C(=O)c2cccc(C(F)(F)F)c2Cl)C3)c1 [Example 136, (2-Chloro-3-(trifluoromethyl)phenyl)(1-(4-methoxypyridin-2-yl)-6,7-dihydro-1H-[1,2,3]triazolo[4,5-c]pyridin-5(4H)-yl)methanone] |  | 5.3 | 
C[C@@H]1c2nnn(-c3ncc(F)cn3)c2CCN1C(=O)c1cccc(C(F)(F)F)c1Cl [Example 158, (R)-(2-chloro-3-(trifluoromethyl)phenyl)(1-(5-fluoropyrimidin-2-yl)-4-methyl-6,7-dihydro-1H-[1,2,3]triazolo[4,5-c]pyridin-5(4H)-yl)methanone] |  | 1.1 | 
CC1Cc2c(nnn2-c2ncccc2F)CN1C(=O)c1cccc(Cl)c1Cl (stereo not drawn) [Example 161, (2,3-Dichlorophenyl)(1-(3-fluoropyridin-2-yl)-6-methyl-6,7-dihydro-1H-[1,2,3]triazolo[4,5-c]pyridin-5(4H)-yl)methanone] |  | −0.9 | 
CC1Cc2c(nnn2-c2cc(F)ccn2)CN1C(=O)c1cccc(Cl)c1Cl (stereo not drawn) [Example 173, 5-[(2,3-Dichlorophenyl)carbonyl]-1-(4-fluoropyridin-2-yl)-6-methyl-4,5,6,7-tetrahydro-1H-[1,2,3]triazolo[4,5-c]pyridine] |  | 8.8 | 
CC1c2nnn(-c3ncc(F)cn3)c2CCN1C(=O)c1cccc(Cl)c1Cl (stereo not drawn) [Example 174, (2,3-Dichlorophenyl)(1-(5-fluoropyrimidin-2-yl)-4-methyl-6,7-dihydro-1H-[1,2,3]triazolo[4,5-c]pyridin-5(4H)-yl)methanone] |  | 4.2 | 
